# Test results published in patent publication US9878007B2, “Syndecan peptides and polypeptides as inhibitors of vascular endothelial growth factor receptor-2 (VEGFR2) and very late antigen-4 (VLA-4)” (Wisconsin Alumni Research Foundation, priority 2015, dated 2018).
# No end group written: not given here.
# How the values were obtained:
# [1] = target: T1, VEGFR2 (Homo sapiens, UniProt P35968); experiment: VEGFR2 activation (pY1054/1059 immunoblot) in HPSE^low CAG cells; assay type: cell-based; conditions: 0.3 μM peptide, 2.5 h
# T1 construct: endogenous in cells; host or cells: CAG human myeloma cells (HPSE^low = empty vector; HPSE^high = human HPSE cDNA)
# Procedure: FIGS. 4A-C. HPSE expression leads to activation of VEGFR2 when α4-integrin engages ligand. (FIG. 4A) HPSE^low and HPSE^high cells treated with or without 1 μM Vandetanib, 20 ng/ml VEGF, or 20 μg/ml VEGFR2 blocking antibody are plated on VCAM-1 to observe cell spreading (Bar=50 μm); (FIG. 4B) HPSE^high cells plated on FN were treated with MMP-9 blocking antibody or 1 μM Vandetanib in the absence or presence of 0.3 μM S1ED^210-236 (Bar=50 μm); (FIG. 4C) HPSE^low cells were kept in suspension or were seeded on FN in the absence or presence of 0.3 μM S1ED^210-236 for 2.5 h. Cell lysates were immunoblotted with antibodies against pY1054/1059 in VEGFR2 as a marker of VEGFR2 activation. Actin is shown as a loading control.
# The inventors next questioned whether VEGFR2 is upstream (e.g., responsible for shedding) or downstream (e.g., a target of the shed Sdc1) of Sdc1 shedding by testing whether or not Sdc1 mimetic peptide could rescue Vandetinib-blocked spreading. HPSE^high cell spreading on FN was inhibited using either anti-MMP9 blocking antibody or Vandetanib in the presence or absence of S1ED^210-236. […] VEGFR2 activation was assessed by measuring autophosphorylation at Tyr1054/1059 in its kinase domain (Lamalice et al., 2007).
# [2] = tested on: CAG myeloma cells; experiment: Cell spreading / attachment assay of CAG myeloma cells on FN or VCAM-1; assay type: cell-based, human; conditions: 0.3 μM peptide; for induction of HPSE^low cell spreading by S1ED peptides: on VCAM-1
# Procedure: Nitrocellulose-coated slides were coated for 2 hr at 37° C. with 40 μg/ml FN (kindly provided by Dr. Donna Peters, University of Wisconsin-Madison) or 5 μg/ml recombinant VCAM-1/Fc chimera (R&D Systems) in calcium and magnesium-free PBS (CMF-PBS; 135 mM NaCl, 2.7 mM KCl, 10.2 mM Na2HPO4-7H20 and 1.75 mM KH2PO4, pH7.4). Slides were blocked for 1 hr at 37° C. with RPMI 1640 containing 1% heat-denatured BSA (plating medium). Cells in plating medium were allowed to attach and spread for 2.5 hr at 37° C. Slides were fixed in 4% EM grade paraformaldehyde (Electron Microscopy Sciences) in CMF-PBS and labeled for 30 min in 0.13 μM rhodamine phalloidin (Invitrogen) in CMF-PBS. Coverslips were mounted in non-fluorescing mounting medium (Immumount; Thermo Shandon) and allowed to dry. All images were acquired with a Nikon Microphot FX microscope using a 20× objective (Nikon; Ex 541-551, DM 580, Barrier 590), Photometric CoolSnap ES camera, and version 7.7.3.0 Metamorph© Imaging software (Molecular Devices). All images represent results from triplicate wells and at least three independent experiments.
# [3] = target: T2, VLA-4 (Homo sapiens, UniProt P05556+P13612); experiment: GST pull down assay: capture of VLA-4 by GST-S1ED; assay type: binding; conditions: HPSE^low cell lysates; peptide 30 M [sic]
# T2 construct: the α4-integrin (VLA-4), which is expressed on myeloma cells; endogenous in cells; host or cells: CAG human myeloma cells (HPSE^low), whole-cell lysate
# Procedure: FIGS. 6A-G. Peptides derived from the active site in Sdc1 activate or inhibit adhesion and invasion. (FIG. 6A) Transwell migration assays towards FN (for 16 hrs) were performed for HPSE low or high cells in the presence of 0, 0.3, 3, and 30 μM of S1ED^210-240. Cells migrating to the bottom side of the filter were counted from five random images for each treatment. (FIG. 6B) The sequence of S1ED210-240 is shown (SEQ ID NO: 3), as well as […] truncation mutants of the peptide (SEQ ID NOs: 5, 2, 4 and 7). Amino acids shown in red appear necessary for the spreading and invasive activity. (FIG. 6C) Images of HPSE^low and HPSE^high cells plated on FN for 2 hr. (FIG. 6D) HPSE^low cells were treated with 0, 0.3, 3, 10 and 30 μM of S1ED^210-236, S1ED^210-233, or S1ED^214-240, plated on FN for 2 hr, fixed and stained with fluorescent phalloidin. Cells from five random images were quantified for cell attachment and cell spreading. (FIG. 6E) HPSE^high cells were treated with 0, 3, 10, and 30 μM of S1ED^210-236, S1ED^210-233, and S1ED^214-240, plated on FN for 2 hr, then fixed, imaged and quantified as in FIG. 6D. (FIG. 6F) Transwell migration assays towards FN (for 16 hr) were performed for HPSE^low or HPSE^high cells in the presence of 30 μM of S1ED^210-236, S1ED^210-233, S1ED^214-240 and Vandetanib. (FIG. 6G) HPSE^low cell lysates were incubated overnight with glutathione beads coated with GST or GST-S1ED in the absence or presence of 30 μM of S1ED^210-236, S1ED^210-233, and S1ED^214-240. Capture of VLA-4 or VEGFR2 was detected by immunoblotting. Sequences in FIG. 6B are 210-240 (SEQ ID NO: 3), 210-236 (SEQ ID NO: 2), 210-233 (SEQ ID NO: 4), 214-240 (SEQ ID NO: 5) and 214-236 (SEQ ID NO: 7).
# CAG cells were washed with CMF-PBS and then lysed for 20 min on ice in lysis buffer. Cell debris was removed by centrifugation at 13000 rpm for 20 min at 4° C. Whole cell lysates were then incubated at 4° C. overnight with either 3 μM GST or 3 μM GST-S1ED in the absence or presence of 1 μM, 3 μM, and 10 μM S1ED^210-240 peptide. GST or GST-S1ED was captured by addition of glutathione Sepharose and the beads were washed with ice-cold lysis buffer and CMF-PBS, prior to addition of SDS-PAGE sample buffer and analyszed by electrophoresis and western blotting as described previously.
# T1 sequence (P35968 20-1356): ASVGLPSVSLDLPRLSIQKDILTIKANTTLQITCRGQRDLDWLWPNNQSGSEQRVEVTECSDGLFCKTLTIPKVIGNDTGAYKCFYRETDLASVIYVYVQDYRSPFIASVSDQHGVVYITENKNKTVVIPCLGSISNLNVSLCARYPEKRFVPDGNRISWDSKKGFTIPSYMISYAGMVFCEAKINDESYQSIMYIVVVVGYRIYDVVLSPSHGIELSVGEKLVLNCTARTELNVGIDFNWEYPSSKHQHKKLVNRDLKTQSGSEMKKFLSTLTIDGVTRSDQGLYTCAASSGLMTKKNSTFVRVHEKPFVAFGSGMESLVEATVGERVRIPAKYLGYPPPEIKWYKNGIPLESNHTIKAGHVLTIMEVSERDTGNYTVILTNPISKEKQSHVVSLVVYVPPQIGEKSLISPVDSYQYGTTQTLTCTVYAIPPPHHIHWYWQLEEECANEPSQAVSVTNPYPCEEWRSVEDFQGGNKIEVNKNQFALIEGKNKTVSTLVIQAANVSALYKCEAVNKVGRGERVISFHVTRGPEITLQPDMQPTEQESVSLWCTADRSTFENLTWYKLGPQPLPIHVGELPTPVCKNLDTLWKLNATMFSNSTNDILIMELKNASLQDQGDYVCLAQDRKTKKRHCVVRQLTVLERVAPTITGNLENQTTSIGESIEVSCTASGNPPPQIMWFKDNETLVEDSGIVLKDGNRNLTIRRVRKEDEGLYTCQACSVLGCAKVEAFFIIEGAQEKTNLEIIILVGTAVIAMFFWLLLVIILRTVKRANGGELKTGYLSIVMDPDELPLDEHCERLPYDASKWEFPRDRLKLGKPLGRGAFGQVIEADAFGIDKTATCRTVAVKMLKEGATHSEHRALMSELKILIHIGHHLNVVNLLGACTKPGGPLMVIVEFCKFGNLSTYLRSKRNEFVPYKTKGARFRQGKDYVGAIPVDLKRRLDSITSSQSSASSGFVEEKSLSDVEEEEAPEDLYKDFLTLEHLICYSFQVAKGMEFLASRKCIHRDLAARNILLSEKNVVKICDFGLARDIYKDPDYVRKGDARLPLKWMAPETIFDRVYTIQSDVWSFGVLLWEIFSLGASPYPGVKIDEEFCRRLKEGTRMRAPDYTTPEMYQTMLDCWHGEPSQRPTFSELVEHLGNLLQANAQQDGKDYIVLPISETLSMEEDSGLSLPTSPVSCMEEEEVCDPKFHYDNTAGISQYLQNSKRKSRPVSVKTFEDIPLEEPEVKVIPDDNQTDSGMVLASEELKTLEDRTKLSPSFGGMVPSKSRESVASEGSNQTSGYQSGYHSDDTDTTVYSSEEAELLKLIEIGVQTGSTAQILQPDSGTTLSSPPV
# T2 sequence (P13612 34-1032): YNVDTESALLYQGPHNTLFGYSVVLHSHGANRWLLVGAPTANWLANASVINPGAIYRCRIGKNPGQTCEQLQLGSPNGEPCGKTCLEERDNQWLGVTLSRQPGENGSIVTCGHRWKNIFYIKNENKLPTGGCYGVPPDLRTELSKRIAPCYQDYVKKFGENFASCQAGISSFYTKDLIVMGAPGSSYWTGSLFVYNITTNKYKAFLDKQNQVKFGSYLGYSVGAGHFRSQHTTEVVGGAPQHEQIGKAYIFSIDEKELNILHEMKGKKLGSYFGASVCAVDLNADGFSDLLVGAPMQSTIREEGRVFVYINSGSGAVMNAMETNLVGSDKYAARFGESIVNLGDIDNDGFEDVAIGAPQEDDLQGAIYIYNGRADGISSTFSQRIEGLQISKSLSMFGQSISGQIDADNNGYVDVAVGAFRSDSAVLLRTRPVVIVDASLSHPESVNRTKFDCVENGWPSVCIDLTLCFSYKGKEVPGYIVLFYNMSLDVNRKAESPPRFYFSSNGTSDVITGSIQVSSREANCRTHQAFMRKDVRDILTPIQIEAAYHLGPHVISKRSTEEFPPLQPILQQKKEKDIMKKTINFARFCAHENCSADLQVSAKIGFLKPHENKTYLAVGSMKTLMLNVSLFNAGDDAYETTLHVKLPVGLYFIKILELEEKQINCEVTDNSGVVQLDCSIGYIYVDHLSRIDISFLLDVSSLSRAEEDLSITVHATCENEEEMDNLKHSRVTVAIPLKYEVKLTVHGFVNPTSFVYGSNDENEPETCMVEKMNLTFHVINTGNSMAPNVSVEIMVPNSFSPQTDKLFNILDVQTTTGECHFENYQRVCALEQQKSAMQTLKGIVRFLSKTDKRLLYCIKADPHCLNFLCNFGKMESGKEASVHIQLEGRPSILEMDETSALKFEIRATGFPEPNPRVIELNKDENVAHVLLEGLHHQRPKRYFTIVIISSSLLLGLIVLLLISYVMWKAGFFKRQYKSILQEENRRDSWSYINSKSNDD
# T2 sequence (P05556 21-798): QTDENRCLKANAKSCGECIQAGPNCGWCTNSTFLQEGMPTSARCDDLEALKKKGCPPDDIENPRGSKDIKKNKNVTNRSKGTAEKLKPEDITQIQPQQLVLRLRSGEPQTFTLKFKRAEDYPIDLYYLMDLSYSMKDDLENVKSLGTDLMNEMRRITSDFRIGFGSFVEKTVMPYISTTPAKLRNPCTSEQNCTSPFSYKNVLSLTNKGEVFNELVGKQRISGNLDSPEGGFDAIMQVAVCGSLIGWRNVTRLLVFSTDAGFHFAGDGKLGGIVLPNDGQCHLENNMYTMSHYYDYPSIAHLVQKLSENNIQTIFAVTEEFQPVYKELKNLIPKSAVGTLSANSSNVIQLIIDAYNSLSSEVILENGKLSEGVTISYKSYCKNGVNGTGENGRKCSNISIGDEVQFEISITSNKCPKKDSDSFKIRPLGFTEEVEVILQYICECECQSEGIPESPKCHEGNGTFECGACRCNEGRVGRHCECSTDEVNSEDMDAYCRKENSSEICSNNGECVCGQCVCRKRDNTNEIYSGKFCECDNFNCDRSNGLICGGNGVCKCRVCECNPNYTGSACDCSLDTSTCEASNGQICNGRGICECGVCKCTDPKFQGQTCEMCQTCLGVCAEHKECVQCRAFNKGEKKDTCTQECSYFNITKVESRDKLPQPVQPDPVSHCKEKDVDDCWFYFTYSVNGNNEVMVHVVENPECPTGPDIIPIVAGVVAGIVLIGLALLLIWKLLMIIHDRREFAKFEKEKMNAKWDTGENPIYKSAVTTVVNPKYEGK
VEGFR2 phosphorylation at Tyr1054/1059 ([1]; HPSE^low cells in suspension),Substance,VEGFR2 phosphorylation at Tyr1054/1059 ([1]; HPSE^low cells plated on FN),rescue of HPSE^high spreading blocked by MMP9 blocking antibody ([2]; on FN),"rescue of HPSE^high spreading blocked by Vandetanib ([2]; on FN, 1 μM Vandetanib)",induction of HPSE^low cell spreading by S1ED peptides [2],competition for capture of VLA-4 by GST-S1ED [3]
no alteration of VEGFR2 phosphorylation,DFTFETSGENTAVVAVEPDRRNQSPVD [S1ED^210-236],causes VEGFR2 phosphorylation in HPSE^low cells plated on FN,rescued spreading in the presence of MMP9 inhibitor,fails to rescue spreading blocked by Vandetanib,retains full activity,effectively blocks capture of both receptors
,"S1ED^210-233: syndecan-1 ectodomain peptide, residues 210-233 (SEQ ID NO: 4) (DFTFETSGENTAVVAVEPDRRNQS)",,,,do not,
